Bounds are passed on as bounds.

The target in one test is T1, PI3K delta (Homo sapiens, UniProt O00329).
T1 construct: for the full-length p110-d subunit are generated and fused by overlapping PCR; His tag (C); made in house; host or cells: baculovirus BV1060; Tn5 (Trichoplusia ni) or TiniPro insect cells
T1 sequence (O00329 with tags, fused parts or gaps limits assumed): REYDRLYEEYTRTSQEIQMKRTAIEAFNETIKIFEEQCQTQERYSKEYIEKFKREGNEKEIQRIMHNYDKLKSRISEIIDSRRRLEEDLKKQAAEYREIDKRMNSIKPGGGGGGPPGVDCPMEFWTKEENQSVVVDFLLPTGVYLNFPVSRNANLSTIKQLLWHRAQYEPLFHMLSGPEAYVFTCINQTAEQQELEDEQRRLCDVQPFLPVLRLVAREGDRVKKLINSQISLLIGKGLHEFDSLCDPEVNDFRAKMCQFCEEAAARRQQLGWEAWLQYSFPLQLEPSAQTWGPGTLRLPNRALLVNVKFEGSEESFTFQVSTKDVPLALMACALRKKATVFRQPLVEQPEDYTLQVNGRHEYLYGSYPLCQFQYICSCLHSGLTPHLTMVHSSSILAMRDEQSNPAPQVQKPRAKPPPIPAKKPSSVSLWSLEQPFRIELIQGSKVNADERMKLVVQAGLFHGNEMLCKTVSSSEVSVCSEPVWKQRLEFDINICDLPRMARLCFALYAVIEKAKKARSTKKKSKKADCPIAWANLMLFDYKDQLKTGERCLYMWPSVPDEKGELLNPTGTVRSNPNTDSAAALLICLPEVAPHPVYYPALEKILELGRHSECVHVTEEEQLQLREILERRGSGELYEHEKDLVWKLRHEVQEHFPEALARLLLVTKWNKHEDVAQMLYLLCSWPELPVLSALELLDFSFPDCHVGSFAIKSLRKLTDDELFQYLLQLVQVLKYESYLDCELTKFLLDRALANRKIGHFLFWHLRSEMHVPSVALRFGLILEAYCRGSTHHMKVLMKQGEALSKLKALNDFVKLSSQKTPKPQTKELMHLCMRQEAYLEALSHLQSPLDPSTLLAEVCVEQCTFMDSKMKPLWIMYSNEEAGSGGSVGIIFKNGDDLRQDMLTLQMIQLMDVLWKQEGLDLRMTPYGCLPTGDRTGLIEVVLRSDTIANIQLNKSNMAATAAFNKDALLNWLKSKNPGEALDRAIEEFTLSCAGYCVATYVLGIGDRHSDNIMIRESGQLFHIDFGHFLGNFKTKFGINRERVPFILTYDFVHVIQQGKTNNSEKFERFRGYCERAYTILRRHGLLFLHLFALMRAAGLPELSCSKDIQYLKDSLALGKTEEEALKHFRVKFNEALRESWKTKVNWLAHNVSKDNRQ
As to the kind of experiment: PI3K delta kinase assay (Kinase-Glo luminescence). The format is biochemical. To be noted: read-out: EPK_PI3Kdelta/IC50. A digest of the protocol: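 IC50s derive from 8-point inhibition curves fitted to a 4-parameter logistic model. Reaction: 10 nM purified p110δ/p85 iSH2 fusion, 1 μM ATP, 10 μg/mL PI substrate, pH 7.5 Tris buffer with MgCl2, NaCl, CHAPS and DTT, run 60 min at room temperature; remaining ATP read by Kinase-Glo luminescence.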
On the technique in general: In Kinase-Glo more light means more ATP remaining.
With `COCc1ncc(-c2ccc3ncc4c(c3c2)n(-c2cccnc2C)c(=O)n4C)cc1OC` [Example 2.30, 8-(5-Methoxy-6-methoxymethyl-pyridin-3-yl)-3-methyl-1-(2-methyl-pyridin-3-yl)-1,3-dihydro-imidazo[4,5-c]quinolin-2-one], the IC50 was 53 nM.
Take `Cc1nc(F)ccc1-n1c(=O)n(C)c2cnc3ccc(-c4cncc(N5CCC5)c4)cc3c21` [Example 7.6, 8-(5-Azetidin-1-yl-pyridin-3-yl)-1-(6-fluoro-2-methyl-pyridin-3-yl)-3-methyl-1,3-dihydro-imidazo[4,5-c]quinolin-2-one]: the IC50 stood at 148 nM.
For the compound `COCc1ncc(-c2ccc3ncc4c(c3c2)n(-c2ccc(F)nc2C)c(=O)n4C)cc1OC` [Example 7.7, 1-(6-Fluoro-2-methyl-pyridin-3-yl)-8-(5-methoxy-6-methoxymethyl-pyridin-3-yl)-3-methyl-1,3-dihydro-imidazo[4,5-c]quinolin-2-one], the IC50 amounted to 79 nM.
Same read-out and setting: with `COc1cc(-c2ccc3ncc4c(c3c2)n(-c2ccc(F)nc2C)c(=O)n4C)cnc1CO` [Example 7.10, 1-(6-Fluoro-2-methyl-pyridin-3-yl)-8-(6-hydroxymethyl-5-methoxy-pyridin-3-yl)-3-methyl-1,3-dihydro-imidazo[4,5-c]quinolin-2-one] the figure was 186 nM; with `COc1ccc(-n2c(=O)n(C)c3cnc4ccc(-c5cncc(N6CCC6)c5)cc4c32)c(OC)n1` [Example 8.11, 8-(5-Azetidin-1-yl-pyridin-3-yl)-1-(2,6-dimethoxy-pyridin-3-yl)-3-methyl-1,3-dihydro-imidazo[4,5-c]quinolin-2-one], 126 nM; with `COc1ccc(-n2c(=O)n(C)c3cnc4ccc(-c5cnc(C(OC)OC)c(OC)c5)cc4c32)c(OC)n1` [Example 8.13, 8-(6-Dimethoxymethyl-5-methoxy-pyridin-3-yl)-1-(2,6-dimethoxy-pyridin-3-yl)-3-methyl-1,3-dihydro-imidazo[4,5-c]quinolin-2-one], 167 nM.
As to `COc1ccc(-n2c(=O)n(C)c3cnc4ccc(-c5cnc(CO)c(OC)c5)cc4c32)c(OC)n1` [Example 8.14, 1-(2,6-Dimethoxy-pyridin-3-yl)-8-(6-hydroxymethyl-5-methoxy-pyridin-3-yl)-3-methyl-1,3-dihydro-imidazo[4,5-c]quinolin-2-one], the IC50 was determined as 311 nM.
On the same count and under the same terms, then `COc1cc(-c2ccc3ncc4c(c3c2)n(-c2ccc(N3CC(F)(F)C3)nc2C)c(=O)n4C)cnc1CO` [Example 24.4, 1-[6-(3,3-Difluoro-azetidin-1-yl)-2-methyl-pyridin-3-yl]-8-(6-hydroxymethyl-5-methoxy-pyridin-3-yl)-3-methyl-1,3-dihydro-imidazo[4,5-c]quinolin-2-one], with 248 nM; and `COc1cc(-c2ccc3ncc4c(c3c2)n(-c2ccc(N3CCCC3)nc2C)c(=O)n4C)cnc1CO` [Example 25.4, 8-(6-Hydroxymethyl-5-methoxy-pyridin-3-yl)-3-methyl-1-(2-methyl-6-pyrrolidin-1-yl-pyridin-3-yl)-1,3-dihydro-imidazo[4,5-c]quinolin-2-one], with 272 nM; and `CCNc1cc(-c2ccc3ncc4c(c3c2)n(-c2ccc(N3CCCC3)nc2C)c(=O)n4C)cnc1CO` [Example 25.5, 8-(5-Ethylamino-6-hydroxymethyl-pyridin-3-yl)-3-methyl-1-(2-methyl-6-pyrrolidin-1-yl-pyridin-3-yl)-1,3-dihydro-imidazo[4,5-c]quinolin-2-one], with 33 nM.
As for `CCNc1cc(-c2ccc3ncc4c(c3c2)n(-c2ccc(N(C)CCO)nc2C)c(=O)n4C)cnc1CO` [Example 26.3, 8-(5-Ethylamino-6-hydroxymethyl-pyridin-3-yl)-1-{6-[(2-hydroxy-ethyl)-methyl-amino]-2-methyl-pyridin-3-yl}-3-methyl-1,3-dihydro-imidazo[4,5-c]quinolin-2-one], the IC50 was 287 nM.
With `Cc1nc(N2CCC(O)C2)ccc1-n1c(=O)n(C)c2cnc3ccc(-c4cnc(N)c(C(F)(F)F)c4)cc3c21` (stereo not shown) [Example 27.3, 8-(6-Amino-5-trifluoromethyl-pyridin-3-yl)-1-[6-(3-hydroxy-pyrrolidin-1-yl)-2-methyl-pyridin-3-yl]-3-methyl-1,3-dihydro-imidazo[4,5-c]quinolin-2-one], the IC50 was under 3 nM.
With `CCOc1ccc(-c2ccc3ncc4c(c3c2)n(-c2ccc(N3CCC(O)C3)nc2C)c(=O)n4C)cn1` (stereo not shown) [Example 27.4, 8-(6-Ethoxy-pyridin-3-yl)-1-[6-(3-hydroxy-pyrrolidin-1-yl)-2-methyl-pyridin-3-yl]-3-methyl-1,3-dihydro-imidazo[4,5-c]quinolin-2-one], the IC50 was 193 nM.
On to `Cc1nc(N2CCC(O)C2)ccc1-n1c(=O)n(C)c2cnc3ccc(-c4cncc(C(C)(C)O)c4)cc3c21` (stereo not shown) [Example 27.5, 8-[5-(1-Hydroxy-1-methyl-ethyl)-pyridin-3-yl]-1-[6-(3-hydroxy-pyrrolidin-1-yl)-2-methyl-pyridin-3-yl]-3-methyl-1,3-dihydro-imidazo[4,5-c]quinolin-2-one], for which the IC50 was 148 nM.
Regarding `CNc1ncc(-c2ccc3ncc4c(c3c2)n(-c2ccc(N3CCC(OC)C3)nc2C)c(=O)n4C)cn1` (stereo not shown) [Example 28.2, 1-[6-(3-Methoxy-pyrrolidin-1-yl)-2-methyl-pyridin-3-yl]-3-methyl-8-(2-methylamino-pyrimidin-5-yl)-1,3-dihydro-imidazo[4,5-c]quinolin-2-one], the IC50 is 159 nM.
For `COc1cc(-c2ccc3ncc4c(c3c2)n(-c2ccc(N3CCC(OC)C3)nc2C)c(=O)n4C)cnc1CO` (stereo not shown) [Example 28.3, 8-(6-Hydroxymethyl-5-methoxy-pyridin-3-yl)-1-[6-(3-methoxy-pyrrolidin-1-yl)-2-methyl-pyridin-3-yl]-3-methyl-1,3-dihydro-imidazo[4,5-c]quinolin-2-one], the IC50 is 42 nM.
`Cc1nc(N2CC(O)C2)ccc1-n1c(=O)n(C)c2cnc3ccc(-c4cncc(C(C)(C)O)c4)cc3c21` [Example 29.1, 1-[6-(3-Hydroxy-azetidin-1-yl)-2-methyl-pyridin-3-yl]-8-[5-(1-hydroxy-1-methyl-ethyl)-pyridin-3-yl]-3-methyl-1,3-dihydro-imidazo[4,5-c]quinolin-2-one]: the IC50 is 19 nM.
Consider `COc1cc(-c2ccc3ncc4c(c3c2)n(-c2ccc(N)nc2C)c(=O)n4C)cnc1CO` [Example 30.1, 1-(6-Amino-2-methyl-pyridin-3-yl)-8-(6-hydroxymethyl-5-methoxy-pyridin-3-yl)-3-methyl-1,3-dihydro-imidazo[4,5-c]quinolin-2-one], for which the IC50 is 118 nM.
Regarding `CNc1ncc(-c2ccc3ncc4c(c3c2)n(-c2ccc(N3CC[C@H](O)C3)nc2C)c(=O)n4C)cc1Cl` [Example 32.4, 8-(5-Chloro-6-methylamino-pyridin-3-yl)-1-[6-((S)-3-hydroxy-pyrrolidin-1-yl)-2-methyl-pyridin-3-yl]-3-methyl-1,3-dihydro-imidazo[4,5-c]quinolin-2-one], the IC50 worked out at 5 nM.
Same read-out and setting: then `COc1cc(-c2ccc3ncc4c(c3c2)n(-c2ccc(N3CC[C@H](O)C3)nc2C)c(=O)n4C)cnc1CO` [Example 32.7, 8-(6-Hydroxymethyl-5-methoxy-pyridin-3-yl)-1-[6-((S)-3-hydroxy-pyrrolidin-1-yl)-2-methyl-pyridin-3-yl]-3-methyl-1,3-dihydro-imidazo[4,5-c]quinolin-2-one], with 35 nM.
Regarding `CNc1ncc(-c2ccc3ncc4c(c3c2)n(-c2ccc(N3CC[C@@H](O)C3)nc2C)c(=O)n4C)cn1` [Example 34.1, 1-[6-((R)-3-Hydroxy-pyrrolidin-1-yl)-2-methyl-pyridin-3-yl]-3-methyl-8-(2-methylamino-pyrimidin-5-yl)-1,3-dihydro-imidazo[4,5-c]quinolin-2-one], the IC50 came out at 42 nM.
The same measure, in the same setting: then `CCNc1cc(-c2ccc3ncc4c(c3c2)n(-c2ccc(N3CC(F)(F)C(F)(F)C3)nc2C)c(=O)n4C)cnc1CO` [Example 35.2, 8-(5-Ethylamino-6-hydroxymethyl-pyridin-3-yl)-3-methyl-1-[2-methyl-6-(3,3,4,4-tetrafluoro-pyrrolidin-1-yl)-pyridin-3-yl]-1,3-dihydro-imidazo[4,5-c]quinolin-2-one], with 10 nM.

Staying with this test, now noted: read-out: PI3Kdelta/IC50.
Consider `CNC(=O)c1ccc(-c2ccc3ncc4c(c3c2)n(-c2cccnc2C)c(=O)n4C)cc1` [Example 2.4, N-Methyl-4-[3-methyl-1-(2-methyl-pyridin-3-yl)-2-oxo-2,3-dihydro-1H-imidazo[4,5-c]quinolin-8-yl]-benzamide], for which the IC50 is 221 nM.
As to `Cc1ncccc1-n1c(=O)n(C)c2cnc3ccc(-c4cnc5[nH]ccc5c4)cc3c21` [Example 2.8, 3-Methyl-1-(2-methyl-pyridin-3-yl)-8-(1H-pyrrolo[2,3-b]pyridin-5-yl)-1,3-dihydro-imidazo[4,5-c]quinolin-2-one], the IC50 turned out to be 35 nM.
Regarding `Cn1c(=O)n(-c2cccnc2F)c2c3cc(-c4cnc5[nH]ccc5c4)ccc3ncc21` [Example 6.3, 1-(2-Fluoro-pyridin-3-yl)-3-methyl-8-(1H-pyrrolo[2,3-b]pyridin-5-yl)-1,3-dihydro-imidazo[4,5-c]quinolin-2-one], the IC50 stood at 78 nM.

The values above are taken from patent publication US20100311714A1, “1H-IMIDAZO[4,5-c]QUINOLINONE COMPOUNDS” (priority 2009, published 2010).
